According to patent publication US9657071B2, “IgE peptide vaccine” (NIPPON ZENYAKU KOGYO CO., LTD., priority 2012, dated 2017):

How the values were obtained:
human IgE = experiment: Treatment experiment, dogs artificially sensitized with Dermatophagoides farinae: IgG antibody against human IgE (ELISA); type: in vivo; conditions: beagles artificially sensitized with Dermatophagoides farinae, s.c. 1 mg five times
Description: Human IgE (Athens Research And Technology, Inc.; IgE, human Myeloma Plasma) was prepared at 1 μg/mL in an immobilization buffer (0.05 M carbonate buffer, pH 9.6), then added at a concentration of 100 μL/well to an ELISA plate, and left overnight at 4° C. The immobilization plate was washed once with PBS-T (0.05%). A blocking solution (4× Block Ace, Snow Brand Milk Products Co., Ltd.; UK-B80) was added thereto at a concentration of 200 μL/well. The plate was blocked by incubation at 37° C. for 1.5 hours. The serum was diluted 1000-fold with a diluent (PBS-T:Block Ace=9:1) and used. The plate was reacted with the serum at 37° C. for 1.5 hours and washed three times with PBS-T (0.05%). An anti-dog IgG antibody (Sheep anti-Dog IgG HRP, Bethyl Laboratories, Inc.; A40-118P) was diluted 2000-fold with a diluent and added thereto as a secondary antibody at a concentration of 100 μL/well. After reaction at 37° C. for 1.5 hours, the plate was washed three times with PBS-T (0.05%). […] Then, the measurement was performed using a plate reader (Bio-Rad Laboratories, Inc.; model 680) (dual: measurement: 450 nm, control: 570 nm). […]
Evaluation: serum was collected, and an IgG antibody against human IgE was assayed by ELISA. […] The IgE antibody against Dermatophagoides farinae was evaluated by ELISA. […]

Der f 2-specific IgE = Der f 2-specific IgE in serum of vaccinated, Der f 2-sensitized dogs; type: in vivo; conditions: dog
Description: The peptide used was MOUSE CH3-4-17-11 (mouse CH3 region amino acid sequence) (SEQ ID NO: 27). 2 mL (500 μg) of a solution of the peptide (concentration: 250 μg/mL) and 2 mL of a complete adjuvant (DIFCO ADJUVANT COMPLETE FREUND, Becton, Dickinson and Company Japan) were dispensed to microtubes. Liquids (4 mL per animal) emulsified by shaking for 15 minutes in a high-speed shaker were used as IgE peptide vaccines.
The animals used were 1 male and 7 females of 5- to 7-month-old beagles and were divided into an administration group (n=4; 08-33, 08-42, 08-43, and 08-44) and a non-administration group (n=4; 08-45, 08-46, 08-47, and 08-48).
The peptide was administered at days 0 (test start date), 14, and 28 in the first course and further at days 106 and 117 in the second course. The test substance was subcutaneously administered to the necks of the 4 animals in the administration group. The non-administration group was untreated.
Four weeks after the completion of the peptide administration of the first course (days 56 and 70 into the test), all of the animals were artificially sensitized. A mixed liquid (4.0 mL per animal) of 300 μg of Der f 2 (Lot No. 3, 1465 μg/mL, prepared by a drug research team) and 50 mg of an alum adjuvant (SIGMA® Aluminium hydrate IgE1, 13 mg/mL) was used as a sensitizing solution and administered intraperitoneally for the first shot and subcutaneously to the necks for the second shot.
Four weeks after the completion of the peptide administration of the second course (day 145 into the test), the artificial sensitization was boosted. A 1-mL solution prepared from Der f 2 (Lot No. 3: 0.205 mL of 1465 μg/mL: 300 μg) with saline was subcutaneously administered to the necks of all of the animals.
At days 0, 14, 28, 42, 56, 70, 77, 84, 98, 106, 117, 131, 145, and 152 (4 time points (0, 14, 28, and 42) were excluded for the non-administration group), blood was collected from the jugular vein of each individual using a syringe. After separation of serum, the serum was used to measure peptide-specific IgG concentrations and IgE-specific IgG concentrations in the serum.
Serum obtained at days 70, 77, 106, 117, 131, 145, and 152 were used in the measurement of Der f 2-specific IgE concentrations in the serum, which was consigned to AAC Laboratories Inc.

| Sequence | level of the IgG antibody against IgE (human IgE) | Der f 2-specific IgE in serum, administration group versus non-administration group (Der f 2-specific IgE; all of the time points) | Der f 2-specific IgE concentrations in serum, administration group (Der f 2-specific IgE; day 70 (2 weeks after the first sensitization)) | average of Der f 2-specific IgE concentrations in the serum of the administration group (Der f 2-specific IgE; day 77, 3 animals, excluding 08-43) | Der f 2-specific IgE concentrations in serum, administration group (Der f 2-specific IgE; day 106 (peak)) | Der f 2-specific IgE concentrations in serum, administration group (Der f 2-specific IgE; day 152 (7 days after the boosting)) | production of IgE after subsequent sensitization (Der f 2-specific IgE; summary of FIG. 6) |
| --- | --- | --- | --- | --- | --- | --- | --- |
| KKTSVSASQWYTKHHNNATT (listed as Mus musculus) [M4-7-11] | confirmed to elevate |  |  |  |  |  |  |
| QEKKTSVSASQWYTKHHNNATTSIT (listed as Mus musculus) [MOUSE CH3-4-17-11] |  | no significant difference | 1528.8 ± 1823.6 ng/mL | 1352.3 ng/mL | 3091.8 ± 1542.6 ng/mL | 3972.5 ± 1216.5 ng/mL | inhibited the production of IgE |
